Data from patent US10336762B2 (priority 2017, dated 2019).
Like-named read-outs stand apart in the source and are kept apart here.

What was measured:
TNFα = assay: cells; type: cell-based, human; settings: LPS-stimulated human monocytes, read-out: EC50 TNF
IRAK4 enzyme = IRAK4 enzyme (Homo sapiens (Human), UniProt Q9NWZ3); assay: biochemical; type: biochemical; settings: IRAK4 enzyme, 500 μM ATP
[1] = Homo sapiens, Monocyte, TNFα content
[2] = Homo sapiens, Monocyte, TNFα by TR-FRET

IRAK4 enzyme, sequence (Q9NWZ3 whole entry): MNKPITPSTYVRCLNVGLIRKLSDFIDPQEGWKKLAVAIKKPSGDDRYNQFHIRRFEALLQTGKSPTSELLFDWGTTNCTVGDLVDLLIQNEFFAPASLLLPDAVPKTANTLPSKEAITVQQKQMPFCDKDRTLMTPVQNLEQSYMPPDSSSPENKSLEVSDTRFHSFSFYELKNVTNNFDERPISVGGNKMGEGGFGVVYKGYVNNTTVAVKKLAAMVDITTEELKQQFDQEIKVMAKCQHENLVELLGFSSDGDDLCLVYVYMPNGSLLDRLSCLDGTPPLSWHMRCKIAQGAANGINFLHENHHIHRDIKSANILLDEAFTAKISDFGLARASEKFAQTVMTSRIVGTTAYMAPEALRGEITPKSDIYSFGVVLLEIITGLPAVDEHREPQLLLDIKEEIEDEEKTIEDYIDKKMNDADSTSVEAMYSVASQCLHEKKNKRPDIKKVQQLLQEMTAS

How did the EC50 (TNFα; [1]) turn out when `COC(=O)N1C[C@@H]2[C@H](C1)[C@H]2Nc1cc(-c2ccc3cc(C#N)cnn23)ncc1C(=O)NC[C@@H](F)C(C)(C)O` [Example 722, (1R,5S,6s)-methyl 6-((2-(3-cyanopyrrolo[1,2-b]pyridazin-7-yl)-5-(((R)-2-fluoro-3-hydroxy-3-methyl-butyl)carbamoyl)pyridin-4-yl)amino)-3-aza-bicyclo[3.1.0]hexane-3-carboxylate] was run?
Its EC50 is 35 nM.

And the IC50 (IRAK4 enzyme; TR-FRET (HTRF))?
Its IC50 is under 1 nM.

With `CC(=O)NC1(c2ccc(Nc3cc(-c4ccc5cc(C#N)cnn45)ncc3C(=O)NC[C@@H](F)C(C)(C)O)cc2)CC1` [Example 211, (R)-4-((4-(1-acetamidocyclo-propyl)phenyl)amino)-6-(3-cyanopyrrolo[1,2-b]pyridazin-7-yl)-N-(2-fluoro-3-hydroxy-3-methylbutyl)nicotinamide] as the compound, how does the EC50 (TNFα; [1]) read?
The EC50 was 50 nM.

And the IC50 (IRAK4 enzyme; TR-FRET)?
Its IC50 is 1 nM.

`Cn1cnc(-c2ccc(Nc3cc(-c4ccc5cc(C#N)cnn45)ncc3C(=O)NC[C@@H](F)C(C)(C)O)cc2)n1` [Example 179, (R)-6-(3-cyanopyrrolo[1,2-b]pyridazin-7-yl)-N-(2-fluoro-3-hydroxy-3-methylbutyl)-4-((4-(1-methyl-1H-1,2,4-triazol-3-yl)phenyl)amino) nicotinamide] was tested. Which EC50 (TNFα; [1]) did it give?
The EC50 was 59 nM.

What about the IC50 (IRAK4 enzyme; TR-FRET) of the same compound?
The IC50 was 1 nM.

Which EC50 (TNFα; [1]) does the source give for `CC(C)(O)[C@H](F)CNC(=O)c1cnc(-c2ccc3cc(C#N)cnn23)cc1NC12CCC(c3cnco3)(CC1)OC2` [Example 633, (R)-6-(3-cyanopyrrolo[1,2-b]pyridazin-7-yl)-N-(2-fluoro-3-hydroxy-3-methylbutyl)-4-((1-(oxazol-5-yl)-2-oxabicyclo[2.2.2]octan-4-yl)amino) nicotinamide] here?
The EC50 was 2 nM.

What about the IC50 (IRAK4 enzyme; TR-FRET (HTRF)) of the same compound?
The IC50 was under 1 nM.

Which results are given for `CC(C)(O)[C@H](F)CNC(=O)c1cnc(-c2ccc3cc(C#N)cnn23)cc1NC1CC1CO` (stereo partly drawn) [Example 303, 6-(3-cyanopyrrolo[1,2-b]pyridazin-7-yl)-N-((R)-2-fluoro-3-hydroxy-3-methylbutyl)-4-((2-(hydroxymethyl)cyclopropyl)amino)nicotinamide]?
EC50 (TNFα; [1]): 26 nM; IC50 (IRAK4 enzyme; TR-FRET): < 1 nM

What does the source list for `CC(=O)N1CC[C@@H]1CNc1cc(-c2ccc3cc(C#N)cnn23)ncc1C(=O)NC[C@@H](F)C(C)(C)O` [Example 892, 4-((((R)-1-acetylazetidin-2-yl)methyl)amino)-6-(3-cyanopyrrolo[1,2-b]pyridazin-7-yl)-N-((R)-2-fluoro-3-hydroxy-3-methylbutyl)nicotinamide]?
EC50 (TNFα; [2]): 808 nM; IC50 (IRAK4 enzyme; TR-FRET): 3 nM

Which results are given for `N#Cc1cnn2c(-c3cc(NC45CCC(O)(CC4)CC5)c(C(=O)NCC(=O)N4CCC4)cn3)ccc2c1` [Example 923, N-(2-(azetidin-1-yl)-2-oxoethyl)-6-(3-cyanopyrrolo[1,2-b]pyridazin-7-yl)-4-((4-hydroxybicyclo[2.2.2]octan-1-yl)amino) nicotinamide]?
EC50 (TNFα; [2]): 52 nM; IC50 (IRAK4 enzyme; TR-FRET): < 1 nM

Which EC50 (TNFα; [1]) does the source give for `CC(C)Nc1cc(-c2ccc3cc(C#N)cnn23)ncc1C(=O)NNC(=O)C(C)(C)O` [Example 66, 6-(3-cyanopyrrolo[1,2-b]pyridazin-7-yl)-N′-(2-hydroxy-2-methylpropanoyl)-4-(isopropylamino) nicotinohydrazide] here?
The EC50 was 458 nM.

And the IC50 (IRAK4 enzyme; TR-FRET)?
Its IC50 is 46 nM.

How did the EC50 (TNFα; [2]) turn out when `COC(=O)NC[C@@H]1CCCN1c1ccc(Nc2cc(-c3ccc4cc(C#N)cnn34)ncc2C(=O)NC[C@@H](F)C(C)(C)O)cn1` [Example 879, methyl (((S)-1-(5-((2-(3-cyanopyrrolo[1,2-b]pyridazin-7-yl)-5-(((R)-2-fluoro-3-hydroxy-3-methylbutyl)carbamoyl)pyridin-4-yl)amino)pyridin-2-yl)pyrrolidin-2-yl)methyl)carbamate] was run?
The EC50 was 225 nM.

What about the IC50 (IRAK4 enzyme; TR-FRET) of the same compound?
Its IC50 is 1 nM.

How did the EC50 (TNFα; [1]) turn out when `CC(C)(C)c1cc(Nc2cc(-c3ccc4cc(C#N)cnn34)ncc2C(=O)NC[C@@H](F)C(C)(C)O)on1` [Example 360, (R)-4-((3-(tert-butyl)isoxazol-5-yl)amino)-6-(3-cyanopyrrolo[1,2-b]pyridazin-7-yl)-N-(2-fluoro-3-hydroxy-3-methyl-butyl)nicotinamide] was run?
Its EC50 is over 10000 nM.

What about the IC50 (IRAK4 enzyme; TR-FRET) of the same compound?
Its IC50 is 2 nM.

Which results are given for `COC(=O)N[C@H]1C[C@H](CNc2cc(-c3ccc4cc(C#N)cnn34)ncc2C(=O)NC[C@@H](F)C(C)(C)O)C1` [Example 615, methyl ((1R,3r)-3-(((2-(3-cyanopyrrolo[1,2-b]pyridazin-7-yl)-5-(((R)-2-fluoro-3-hydroxy-3-methylbutyl)carbamoyl)pyridin-4-yl)amino)methyl)cyclobutyl)carbamate]?
EC50 (TNFα; [1]): 46 nM; IC50 (IRAK4 enzyme; TR-FRET (HTRF)): < 1 nM

With `CC(C)Nc1cc(-c2ccc3cc(C#N)cnn23)ncc1C(=O)N[C@H]1CC[C@H](NC(=O)C(F)(F)F)CC1` [Example 127, 6-(3-cyanopyrrolo[1,2-b]pyridazin-7-yl)-4-(isopropyl-amino)-N-((1r,4r)-4-(2,2,2-trifluoroacetamido)cyclohexyl)nicotinamide] as the compound, how does the EC50 (TNFα; [1]) read?
The EC50 was 112 nM.

And the IC50 (IRAK4 enzyme; TR-FRET)?
Its IC50 is under 1 nM.

Which results are given for `CC(C)(O)[C@H](F)CNC(=O)c1cnc(-c2ccc3cc(C#N)cnn23)cc1NCc1c[nH]cn1` [Example 105, (R)-4-(((1H-imidazol-4-yl)methyl)amino)-6-(3-cyanopyrrolo[1,2-b]pyridazin-7-yl)-N-(2-fluoro-3-hydroxy-3-methylbutyl)nicotinamide]?
EC50 (TNFα; [1]): 3160 nM; IC50 (IRAK4 enzyme; TR-FRET): 9 nM

What does the source list for `CC(C)(O)[C@H](F)CNC(=O)c1cnc(-c2ccc3cc(C#N)cnn23)cc1NC1C2CNCC1C2` (single isomer, unassigned) [Example 26]?
EC50 (TNFα; TNFα content): 182 nM; IC50 (IRAK4 enzyme; TR-FRET): 3 nM

What does the source list for `CC(C)(O)[C@H](F)CNC(=O)c1cnc(-c2ccc3cc(C#N)cnn23)cc1Nc1nc(-c2ccc(Oc3ccccc3)cc2)cs1` [Example 359, (R)-6-(3-cyanopyrrolo[1,2-b]pyridazin-7-yl)-N-(2-fluoro-3-hydroxy-3-methylbutyl)-4-((4-(4-phenoxyphenyl)thiazol-2-yl)amino)nicotinamide]?
EC50 (TNFα; [1]): > 10000 nM; IC50 (IRAK4 enzyme; TR-FRET): 614 nM

Which EC50 (TNFα; [2]) does the source give for `CC(C)(O)[C@H](F)CNC(=O)c1cnc(-c2ccc3cc(C#N)cnn23)cc1N[C@H]1C[C@H](CNC(=O)C2CC2F)C1` (stereo partly drawn) [Example 941, 6-(3-cyanopyrrolo[1,2-b]pyridazin-7-yl)-N-((R)-2-fluoro-3-hydroxy-3-methylbutyl)-4-(((1R,3R)-3-(((1R,2R)-2-fluorocyclo-propane-1-carboxamido)methyl)cyclobutyl)amino) nicotinamide] here?
The EC50 was 19 nM.

And the IC50 (IRAK4 enzyme; TR-FRET)?
The IC50 was under 1 nM.

For `COC(=O)NC[C@H]1C[C@H](Nc2cc(-c3ccc4cc(C#N)cnn34)ncc2C(=O)NC2CCC(NC(=O)C3CC3)CC2)C1` (stereo partly drawn) [Example 830, methyl (((1R,3r)-3-((2-(3-cyanopyrrolo[1,2-b]pyridazin-7-yl)-5-(((1r,4R)-4-(cyclopropanecarboxamido)cyclohexyl)carbamoyl)pyridin-4-yl)amino)cyclobutyl)methyl)carbamate], which EC50 (TNFα; [2]) is on record?
The EC50 was 23 nM.

What about the IC50 (IRAK4 enzyme; TR-FRET) of the same compound?
The IC50 was under 1 nM.

What does the source list for `CC(=O)NC[C@H]1CC[C@H](Nc2cc(-c3ccc4cc(C#N)cnn34)ncc2C(=O)NC[C@@H](F)C(C)(C)O)CC1` [Example 557, 4-(((1r,4R)-4-(acetamidomethyl)cyclo-hexyl)amino)-6-(3-cyano-pyrrolo[1,2-b]pyridazin-7-yl)-N-((R)-2-fluoro-3-hydroxy-3-methylbutyl) nicotinamide]?
EC50 (TNFα; [1]): 27 nM; IC50 (IRAK4 enzyme; TR-FRET (HTRF)): < 1 nM

How did the EC50 (TNFα; [1]) turn out when `Cc1nnc(-c2ccc(Nc3cc(-c4ccc5cc(C#N)cnn45)ncc3C(=O)NC[C@@H](F)C(C)(C)O)cc2)[nH]1` [Example 218, (R)-6-(3-cyanopyrrolo[1,2-b]pyridazin-7-yl)-N-(2-fluoro-3-hydroxy-3-methylbutyl)-4-((4-(5-methyl-4H-1,2,4-triazol-3-yl)phenyl)amino) nicotinamide] was run?
The EC50 was 41 nM.

What about the IC50 (IRAK4 enzyme; TR-FRET) of the same compound?
The IC50 was under 1 nM.

Which results are given for `COC(=O)N[C@]1(C)CC[C@H](Nc2cc(-c3ccc4cc(C#N)cnn34)ncc2C(=O)NC[C@@H](F)C(C)(C)O)CC1` [Example 619, methyl ((1S,4s)-4-((2-(3-cyanopyrrolo[1,2-b]pyridazin-7-yl)-5-(((R)-2-fluoro-3-hydroxy-3-methylbutyl)carbamoyl)pyridin-4-yl)amino)-1-methylcyclohexyl) carbamate]?
EC50 (TNFα; [1]): 168 nM; IC50 (IRAK4 enzyme; TR-FRET (HTRF)): 3 nM

Which results are given for `CC(C)Nc1cc(-c2ccc3cc(C#N)cnn23)ncc1C(=O)NCC(O)C(C)(C)O` (centres unmarked) [Example 330, 6-(3-cyanopyrrolo[1,2-b]pyridazin-7-yl)-N-(2,3-dihydroxy-3-methyl-butyl)-4-(isopropylamino) nicotinamide]?
EC50 (TNFα; [1]): 171 nM; IC50 (IRAK4 enzyme; TR-FRET): 6 nM

Which results are given for `CC(C)(O)[C@H](F)CNC(=O)c1cnc(-c2ccc3cc(C#N)cnn23)cc1N[C@H]1C[C@H](COC(=O)N2CCC(F)(F)C2)C1` [Example 737, ((1R,3r)-3-((2-(3-cyano-pyrrolo[1,2-b]pyridazin-7-yl)-5-(((R)-2-fluoro-3-hydroxy-3-methylbutyl)carbamoyl)pyridin-4-yl)amino)cyclobutyl) methyl 3,3-difluoro-pyrrolidine-1-carboxylate]?
EC50 (TNFα; [1]): 26 nM; IC50 (IRAK4 enzyme; TR-FRET (HTRF)): < 1 nM

How did the EC50 (TNFα; [1]) turn out when `CC(C)(F)[C@H](F)CNC(=O)c1cnc(-c2ccc3cc(C#N)cnn23)cc1N[C@H]1CCC[C@@H](O)C1` [Example 530, 6-(3-cyanopyrrolo[1,2-b]pyridazin-7-yl)-N-((R)-2,3-difluoro-3-methylbutyl)-4-(((1S,3R)-3-hydroxy-cyclohexyl)amino)nicotinamide] was run?
Its EC50 is 10 nM.

What about the IC50 (IRAK4 enzyme; TR-FRET (HTRF)) of the same compound?
The IC50 was under 1 nM.

`CC(C)(O)[C@H](F)CNC(=O)c1cnc(-c2ccc3cc(C#N)cnn23)cc1Nc1ccc(N2CCNCC2)nc1` [Example 213, (R)-6-(3-cyanopyrrolo[1,2-b]pyridazin-7-yl)-N-(2-fluoro-3-hydroxy-3-methylbutyl)-4-((6-(piperazin-1-yl)pyridin-3-yl)amino) nicotinamide] was tested. Which EC50 (TNFα; [1]) did it give?
Its EC50 is 51 nM.

What about the IC50 (IRAK4 enzyme; TR-FRET) of the same compound?
Its IC50 is under 1 nM.

What does the source list for `CNC(=O)c1cnc(-c2ccc3cc(C#N)cnn23)cc1NC12CCC(C(=O)N3CC(F)(F)C3)(CC1)CC2` [Example 483, 6-(3-cyanopyrrolo[1,2-b]pyridazin-7-yl)-4-((4-(3,3-difluoroazetidine-1-carbonyl)bicyclo[2.2.2]octan-1-yl)amino)-N-methylnicotinamide]?
EC50 (TNFα; [1]): 64 nM; IC50 (IRAK4 enzyme; TR-FRET (HTRF)): 1 nM
